Experimental findings from US9744173B2, “2-amino 6-methyl-4,4a,5,6-tetrahydropyrano[3,4-d][1,3]thiazin-8a(8H)-yl-1,3-thiazol-4-yl amides” (Pfizer Inc., priority 2014, dated 2017) are described below.

One data set in a line: GSH Incubation Assay. Type of data set: in vitro ADME. The settings on record: following incubations with glutathione. As for the experimental part:
GSH Incubation Assay: The test compound (10 μM in DMSO) was incubated with L-glutathione (50 mM, prepared in 100 mM postassium phosphate buffer) at 37° C. for 4 hours and then analyzed by HPLC-UV/MS/MS without work-up. Thermo Accela HPLC and Velos Pro Orbitrap Elite (S/N: SN05189B) operating in positive mode with a source voltage of 3.5 kV with data dependant processing. […] Product assignments were based on high resolution mass spectrometer fragmentation.

Data set [1] has as its system sAPPβ in H4 human neuroglioma cells over-expressing the wild-type human APP695. As to the kind of experiment: sAPPβ Whole-Cell Assay (WCA). Type of data set: cell-based. The settings on record: 18 h. On the procedure:
sAPPβ Whole-Cell Assay (WCA): sAPPβ, the primary cleavage product of BACE1, was determined in H4 human neuroglioma cells over-expressing the wild-type human APP695. […] The colorimetric reaction was read by an EnVision (PerkinElmer) plate-reader.

A further data set addresses human BACE2 (Homo sapiens (Human), UniProt Q9Y5Z0). Kind of data set: BACE2 binding assay (SPA), BACE2/BACE1 Binding Ratio. As to conditions: ratio of IC50 from respective binding assays, pH 6.0. As for the experimental part: BACE2/BACE1 Binding Ratio: The BACE1 and BACE2 binding assays measured beta-site amyloid precursor protein-cleaving enzyme (BACE) binding as a decrease in the counts of radioligand bound in a scintillation proximity assay (SPA). […] Full length human BACE1 or BACE2 over-expressed in HEK cells was prepared by Pfizer scientists. Frozen stock cell paste was reacted in 50 mM sodium acetate buffer (pH=6.0) containing 3H-(4aR,6R,8aS)-8a-(2,4-difluorophenyl)-6-(1-methyl-1H-pyrazol-4-yl)-4,4a,5,6,8,8a-hexahydropyrano[3,4-d][1,3]thiazin-2-amine ligand, SPA bead and 60 μM to 600 pM of test compound in an assay volume of 27 uL. The compound plate also contained positive (BACE inhibitor) and negative (DMSO) control wells. The binding was carried out at room temperature for 30 minutes and then the plates were read on a TriLux Microbeta reader to determine the number of counts bound.

human BACE2, sequence (Q9Y5Z0 63-518): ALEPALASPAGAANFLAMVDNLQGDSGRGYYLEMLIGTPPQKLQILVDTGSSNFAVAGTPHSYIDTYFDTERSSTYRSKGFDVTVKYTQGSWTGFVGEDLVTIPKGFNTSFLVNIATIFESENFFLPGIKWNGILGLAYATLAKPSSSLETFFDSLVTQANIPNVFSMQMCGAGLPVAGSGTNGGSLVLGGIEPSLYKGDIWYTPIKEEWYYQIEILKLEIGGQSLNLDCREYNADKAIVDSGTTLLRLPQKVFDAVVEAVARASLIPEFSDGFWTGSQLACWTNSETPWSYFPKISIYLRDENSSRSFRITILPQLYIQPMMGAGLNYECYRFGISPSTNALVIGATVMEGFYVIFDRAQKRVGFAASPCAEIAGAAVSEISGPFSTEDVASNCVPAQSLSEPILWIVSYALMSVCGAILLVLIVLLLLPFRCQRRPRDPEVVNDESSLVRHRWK

As to `C[C@H]1C[C@H]2CSC(N)=N[C@@]2(c2nc(NC(=O)c3ccc(OC(F)F)cn3)cs2)CO1` [Example 1, N-{2-[(4aR,6S,8aR)-2-amino-6-methyl-4,4a,5,6-tetrahydropyrano[3,4-d][1,3]thiazin-8a(8H)-yl]-1,3-thiazol-4-yl}-5-(difluoromethoxy)pyridine-2-carboxamide], the “formation of GSH adducts” value in “GSH Incubation Assay” is recorded as “not detected”.
The same measure, in the same setting: as for `C[C@H]1C[C@H]2CSC(N)=N[C@@]2(c2nc(NC(=O)c3cnc(OC(F)F)cn3)cs2)CO1` [Example 2, N-{2-[(4aR,6S,8aR)-2-amino-6-methyl-4,4a,5,6-tetrahydropyrano[3,4-d][1,3]thiazin-8a(8H)-yl]-1,3-thiazol-4-yl}-5-(difluoromethoxy)pyrazine-2-carboxamide], the entry is “not detected”.
As usually defined, the IC50 is the concentration needed to halve the response being measured. The low end stands for greater potency, the high end for weaker potency. Turning to `C[C@H]1C[C@H]2CSC(N)=N[C@@]2(c2cc(NC(=O)c3ccc(Cl)cn3)ccc2F)CO1` [Comparator 7], the half-inhibitory concentration (IC50) in data set [1] was < 1 nM. Further, the “BACE2/BACE1 Binding Ratio” value on human BACE2 is 1.0.
On to `C[C@H]1C[C@H]2CSC(N)=N[C@@]2(c2nc(NC(=O)c3ccc(Cl)cn3)cs2)CO1` [Example 7, N-{2-[(4aR,6S,8aR)-2-amino-6-methyl-4,4a,5,6-tetrahydropyrano[3,4-d][1,3]thiazin-8a(8H)-yl]-1,3-thiazol-4-yl}-5-chloropyridine-2-carboxamide], for which the “formation of GSH adducts” value in “GSH Incubation Assay” is reported as “not detected”.
On to `NC1=N[C@@]2(c3cc(NC(=O)c4ccc(OC(F)F)cn4)ccc3F)CO[C@@H](C(F)(F)F)C[C@H]2CS1` [Comparator 6], for which the half-maximal inhibitory concentration (IC50) in data set [1] was < 1 nM. Also, the “BACE2/BACE1 Binding Ratio” value on human BACE2 amounted to 1.0.
Take `Cc1cc(OC(F)F)cnc1C(=O)Nc1csc([C@]23CO[C@@H](C)C[C@H]2CSC(N)=N3)n1` [Example 45, N-{2-[(4aR,6S,8aR)-2-amino-6-methyl-4,4a,5,6-tetrahydropyrano[3,4-d][1,3]thiazin-8a(8H)-yl]-1,3-thiazol-4-yl}-5-(difluoromethoxy)-3-methylpyridine-2-carboxamide]: the “formation of GSH adducts” value in the data set “GSH Incubation Assay” is given as “not detected”.
